According to patent US10450613B2, “EGFR/NEDD9/TGF-β interactome and methods of use thereof for the identification of agents having efficacy in the treatment of hyperproliferative disorders” (Fox Chase Cancer Center, priority 2007, dated 2019):

Key:
A431 cells [1] = experiment: Cell motility, wound healing assay; format: cell-based, human; conditions: 0.5 μM erlotinib with 0.5 μM Stattic or 0.25 μM Ro-318220, 18 hours
Protocol: Soft agar assays were done essentially as described (10). Cells were seeded at 2000 cells per well and grown for 2-3 weeks. Colonies were stained with thiazolyl blue tetrazolium bromide, and scored using a Nikon SMZ1500 microscope coupled with Cool Snap charge coupled device camera (Roper Scientific, Inc., Tucson, Ariz.) with Image Pro-Plus software (Media Cybernetics, Silver Spring, Md.). Survival curves were based on at least two concentration points, with values determined in at least two separate experiments, with each assay done in duplicate. Drug interactions were calculated as above using CalcuSyn software (Biosoft, Ferguson, Mo.) to establish the combination index (CI). For motility assays, movement of A431 cells grown in 1% FCS into a scratched area of the monolayer was monitored with a phase contrast 10× objective using an inverted microscope (Nikon TE2000). Images were obtained every 20 min for 18 hours. Areas of migration were estimated using MetaMorph software. For both studies, analysis of variance was used to determine the treatment effect for each comparison. The logarithm of normalized ratios (to vehicle control) was used in the analysis. Multiple hypothesis testing was accounted for by the false discovery rate method of Benjamini & Hochberg (supra).

A431 cells [2] = experiment: Drug synergy testing (Chou-Talalay CI), viability; format: cell-based, human; conditions: 72 hours, CI <1 synergy, <0.5 strong synergy
Protocol: (§1) The coefficient of interaction (CI) between pharmacological inhibitors was established by the Chou-Talalay method (Chou et al., (1984) Adv Enzyme Regul 22:27). The software package CalcuSyn (BioSoft, UK) was used to automate calculations. Briefly, for each drug tested, an IC50 curve was established in each cell line, and used to select combination doses of drugs for subsequent synergy tests. 3500 cells were plated per well in 96-well plates. After 24 hours, cells were treated with serial dilutions of individual inhibitors, or combinations of two inhibitors maintained at a constant molar ratio. After 72 hours incubation, cell viability was measured using either CellTiter Blue (Promega, USA) or a WST1 assay (Roche Applied Science, Indianapolis, Ind.). The CI values for each dose and corresponding cytotoxicity were expressed as the fraction affected (Fa) and were calculated using CalcuSyn computer software and presented as Fa-CI plots. CI values <1 indicate synergy, and <0.5 strong synergy, between the two agents in producing cytotoxic effect.

HCT116 cells = experiment: Drug synergy testing (Chou-Talalay CI), viability; format: cell-based, human; conditions: HCT116; 72 hours; CI <1 synergy, <0.5 strong synergy
Protocol: as §1

AKT = experiment: Western analysis of AKT activation in A431 lysates (siRNA or inhibitors), basal and EGF-stimulated; format: cell-based, human; conditions: serum starvation or EGF stimulation (FIG. 16)
Protocol: To measure the effect of siRNAs on the activity of EGFR effectors, cells were transfected with siRNA, and the culture media replaced with glutamine-supplemented serum-free DMEM at 24 hrs post-transfection. After overnight incubation, cells were treated with DMSO, erlotinib or PHA-680632 for 2 hrs, then either left untreated, or stimulated with EGF at 15 ng/ml for 15 minutes. Cell extracts were prepared using M-PER™ mammalian protein extraction buffer (Thermo Scientific, Rockford, Ill.) supplemented with the Halt™ phosphatase inhibitor cocktail (Thermo Scientific, Rockford, Ill.) and the Complete Mini™ protease inhibitor cocktail (Roche Diagnostics Gmbh, Manheim, Germany). Extracts were centrifuged at 15,000 g for 10 min at 4° C. Western signal detection was performed using antibodies to indicated proteins with LiCor technology (Lincoln, Nebr., USA) or standard X-ray film.

A431 cells [3] = experiment: siRNA library sensitization screen, Alamar blue (CellTiter Blue) viability, sensitization index (SI) with erlotinib, panitumumab, U0126, CPT11 vs DMSO; format: cell-based, human; conditions: siRNA against the named gene, false discovery rate set at 5%; for Ratio (Erlotinib): sensitization to erlotinib; for Ratio (CPT11): sensitization to CPT11
Text: The custom siRNA library targeting 638 human genes was designed and synthesized with two siRNA duplexes for each gene target (Qiagen, Valencia, Calif.). Transfection conditions were established for the A431 […] (K-Ras wt, p53 mutant) cell line (data not shown) using PLK1 & GL2 siRNA controls to achieve Z′ values of 0.5 or greater. IC values using erlotinib, panitumumab, and camptothecin (CPT11) were established (data not shown). Details of establishment of Z′ factor for transfections, and statistical consideration for selection of preliminary positive candidates graphically outlined in FIG. 4B, and based on standard approaches described in detail in Whitehurst et al., (2007) Nature 446:815). For each gene targeted, two independent siRNA duplexes were combined and arrayed in 96-well plates with a layout intended to seed in regular positive siRNA (targeting PLK1) and negative control siRNA (targeting insect luciferase GL2, Thermo Fisher Scientific, USA) amongst test siRNAs. A reverse transfection protocol was used where siRNA at final concentration of 50 nM was mixed with Dharmafect 1 transfection reagent according to the manufacturer's instructions (Thermo Fisher, USA). Cells (3500 per well, resuspended in 1% FBS/DMEM) were added directly to wells using an automated liquid dispenser. At 24 hr following transfection, two replica plates were treated with drugs at previously established IC30 or 0.02% DMSO diluted in culture media. The viability at 96 hr post-transfection was assessed using Alamar blue (CellTiter Blue Viability Assay, Promega, USA). Dose-responses for each drug and cell line were retested in parallel with each screen.
For screening, A431 cells were transfected with siRNA followed by exposure to vehicle (0.02% DMSO), or drug used at inhibitory concentrations of 30% KA. Viability was determined for each target gene and normalized to the averaged GL2 viability on each plate. Sensitization index (SI) was calculated for each individual well on a 96-well plate as SI=(Vdrug/GL2drug)/(VDMSO/GL2DMSO), where V was viability in wells transfected with targeting duplexes and GL2 was the averaged viability of 4 wells with non-targeting negative control siRNA on the same plate. All calculations were automated using cellHTS package within open source Bioconductor Package (on the web at bioconductor.org) (Gentleman et al. (2004) Genome Biol. 5:R80). The effect of drug treatment on viability was measured based on the normalized viabilities in the drug treated and vehicle wells using Limma (Smyth, G. K. (2004) Statistical Applications in genetics and molecular biology 3, Article 3). Limma borrows strength across genes based on an empirical Bayes approach and identifies statistically significant changes in viability by combining information from a set of gene-specific tests. Hits were identified based on statistical significance as well as biological significance. Statistical significance was determined by p-value controlled for the false discovery rate (FDR) using the Benjamini-Hochberg step-up method (Benjamini et al. (1995) J. Royal Stat Soc B 57:289) to account for multiple testing. […] Biological significance was arbitrarily defined as an increase or decrease in SI greater than 15%. Hits identified as statistically and biologically significant were further validated.
Primary sensitizing hits obtained with erlotinib and/or cetuximab were further tested with erlotinib and DMSO in the A431 cell line by using 4 siRNA duplexes individually (the two originally used in the screen, plus two new non-overlapping RNA oligoribonucleotides), to confirm the sensitization phenotype at 10 nM and 50 nM concentrations. Hits were considered as validated by this method if at least 2 out of 4 siRNA reproduced the sensitization phenotype with SI≤0.85, FDR≤20% for each individual siRNA sequence in at least two independent experiments. […]

cancer cells = experiment: Drug synergy testing (Chou-Talalay CI), cell line not stated (FIG. 17B); format: cell-based
Protocol: as §1

[4] = test system: A431, HCT116, DLD-1, DKS-8, LoVo, SCC61, PANC-1 and MIA PaCa-2 cell lines; experiment: Cell line specificity of hit activity: siRNA sensitization to erlotinib, cetuximab and CPT11, and intrinsic viability; format: cell-based, human; conditions: network analysis of stronger hits (FIG. 14A)
Protocol: Cell line specificity of hit activity. Of the confirmed set of 61 siRNA targets identified for erlotinib in A431 cells, 45 were further tested for sensitization to erlotinib, cetuximab and camptothecin in A431 versus refractory adenocarcinoma cell lines for which optimal transfection conditions and drug sensitivity had been established. […] SI and statistical significance were calculated as in the validation experiments. All experiments were performed at least three times independently.
In subsequent data analysis, two approaches were used. […] For all experiments performed with a given cell:drug combination (e.g., A431:erlotinib, or HCT116:CPT11) averages were determined based on at least three experimental runs. […]
In additional experiments, we comparatively profiled the efficacy of the hit panel as sensitizers of erlotinib, cetuximab, and CPT11 across a set of cell lines, including A431, the colorectal adenocarcinoma cell lines HCT116, DLD-1, DKS-8, and LoVo, the head and neck squamous cell carcinoma cell line SCC61, and the pancreatic adenocarcinoma cell lines PANC-1 and MIA PaCa-2 (FIG. 13A). […] To compensate for this difference, we analyzed the data in two ways: first, by conventional threshold analysis (FIG. 13A, left), and second, by assessing the rank order of sensitization phenotype, using relaxed statistical criteria (FIG. 13A, right; see Materials and Methods). […]

A431 cells [5] = experiment: Phosphoproteomic analysis, Proteome Profiler array of 46 signaling proteins; format: cell-based, human; conditions: A431, serum starved, EGF-stimulated (FIG. 19A)
Protocol: For phosphoproteomic analysis, we used the Proteome Profiler™ array (R&D Systems, Minneapolis, Minn., USA) according to the manufacturer's protocol. In brief, A431 cells were grown for 24 hours in DMEM supplemented with L-glutamine and 1% FBS to 70% confluency. Cells then were either serum starved overnight or remained in the same media. Serum starved and cells incubated in 1% serum were either left untreated or incubated with IC30 concentrations of inhibitors for 3 hours. […] Serum-starved cells were subsequently stimulated with recombinant EGF (Sigma-Aldrich, USA) at 15 ng/mL for 15 minutes before lysis. For a subset of phospho-proteins, phosphorylation status was confirmed by Western blot. Quantification was done using ImageJ software.

O=[N+]([O-])c1ccc2c(c1)S(=O)(=O)C=C2 [Stattic]
Cell motility, inhibitor in combination with erlotinib (A431 cells [1]): no statistically significant synergy | Synergy with erlotinib in reducing viability (Chou-Talalay CI) (A431 cells [2]): synergized with erlotinib | Synergy with erlotinib in reducing viability (Chou-Talalay CI) (HCT116 cells): synergized with erlotinib | Akt S473 phosphorylation, inhibitor in combination with erlotinib (AKT): significantly reduced phosphorylation

Cn1cc(C2=C(c3cn(C4CCN(Cc5ccccn5)CC4)c4ccccc34)C(=O)NC2=O)c2ccccc21 [enzastaurin]
Synergy with erlotinib in reducing viability (Chou-Talalay CI) (A431 cells [2]): synergized very significantly | Synergy with erlotinib in reducing viability (Chou-Talalay CI) (HCT116 cells): synergized very significantly | Akt S473 phosphorylation, inhibitor in combination with erlotinib (AKT): significantly reduced phosphorylation

GRB14 (sense AAGAATGTATTTCACCTGCAA; target sequence only, antisense strand not given here)
Ratio (Erlotinib) (A431 cells [3]): 0.54

O=C(Nc1cccc(Nc2nccc(Nc3cccc(C(F)(F)F)c3)n2)c1)C1CC1 [C1368]
Synergy with erlotinib (Chou-Talalay CI) (cancer cells): synergized

Cn1cc(C2=C(c3cn(CCCSC(=N)N)c4ccccc34)C(=O)NC2=O)c2ccccc21 [Ro-318220]
Cell motility, inhibitor in combination with erlotinib (A431 cells [1]): significantly reduced tumor cell motility | Synergy with erlotinib in reducing viability (Chou-Talalay CI) (A431 cells [2]): synergized very significantly | Synergy with erlotinib in reducing viability (Chou-Talalay CI) (HCT116 cells): synergized very significantly

PRKACB: siRNA duplexes of the custom library targeting PRKACB (sense CAGCCTGTGTAGTGTGACAAA; target sequence only, antisense strand not given here)
Ratio (CPT11) (A431 cells [3]): 0.43 | Ratio (Erlotinib) (A431 cells [3]): 0.53 | Ratio (Panitumumab) (A431 cells [3]; sensitization to panitumumab): 0.63 | Sensitizing activity of stronger hits across cell lines [4]: strong sensitizers

MAP3K1 (sense CACGCATGTCAAATTCTCATA; target sequence only, antisense strand not given here)
Ratio (Erlotinib) (A431 cells [3]): 0.66

C#Cc1cccc(Nc2ncnc3cc(OCCOC)c(OCCOC)cc23)c1 [erlotinib]
Phosphorylation of 46 signaling proteins, single agent (A431 cells [5]): blocked EGF-induced activation of multiple signaling pathways

GAB2 (sense CACCAATTCTGAAGACAACTA; target sequence only, further chemistry not given here)
Ratio (CPT11) (A431 cells [3]): 0.83
